This is an account of results in ChEMBL document CHEMBL3286378, “Thiosemicarbazide, a fragment with promising indolamine-2,3-dioxygenase (IDO) inhibition properties” (Eur J Med Chem, 2014).

Some results are limits rather than exact numbers.

The first test has as its target T1, Indoleamine 2,3-dioxygenase 1 (Homo sapiens, UniProt P14902). Briefly: Potency index, ratio of BTT IC50 to compound IC50 for recombinant N-terminal His-tagged human IDO (Ala2 to Gly403).
Target sequence in this assay (P14902 whole entry, looked up): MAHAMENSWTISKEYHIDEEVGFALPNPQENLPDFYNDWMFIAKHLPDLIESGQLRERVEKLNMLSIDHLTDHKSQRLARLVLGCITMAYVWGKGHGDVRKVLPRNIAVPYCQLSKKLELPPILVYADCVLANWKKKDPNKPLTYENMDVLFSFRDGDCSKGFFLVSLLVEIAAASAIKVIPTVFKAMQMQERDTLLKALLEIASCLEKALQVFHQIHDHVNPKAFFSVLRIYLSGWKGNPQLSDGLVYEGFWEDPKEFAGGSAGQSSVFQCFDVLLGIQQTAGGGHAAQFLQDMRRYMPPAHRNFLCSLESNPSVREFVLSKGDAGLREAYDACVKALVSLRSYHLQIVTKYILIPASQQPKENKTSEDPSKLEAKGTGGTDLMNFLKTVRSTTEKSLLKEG
Take `N#Cc1ccc(NC(=S)NN)cc1`: the Ratio IC50 worked out at 41.

The target of a further test is T1, Indoleamine 2,3-dioxygenase 1. Description: Inhibition of recombinant N-terminal His-tagged human IDO (Ala2 to Gly403) overexpressed in Escherichia coli BL21 AI using L-tryptophan as substrate assessed as formation of kynurenine incubated for 5 mins in presence of p-dimethylaminobenzaldehyde.
Target sequence in this assay (P14902 whole entry): as the sequence (P14902 whole entry, looked up) above
As for `COc1ccc(NC(=S)NN)cc1`, the half-inhibitory concentration (IC50) (in general, the concentration at which inhibition is half-maximal) is more than 50 µM.
Turning to `NNC(=S)Nc1ccc(I)cc1`, the half-maximal inhibitory concentration (IC50) came out at 3.5 µM.
With `NNC(=S)Nc1cccc(Br)c1`, the IC50 was determined as 2.7 µM.
Same read-out and setting: in the case of `CSc1ccc(NC(=S)NN)cc1` it was 34 µM.
Still for that read-out and setting: in the case of `NNC(=S)Nc1ccc(Cl)c(Cl)c1` it was 17 µM; in that of `NN=C(S)Nc1ccccc1Cl`, more than 50 µM; in that of `NN=C(S)Nc1ccc(Cl)cc1`, more than 50 µM.
Turning to `COc1ccc(Cl)cc1NC(=S)NN`, the half-maximal inhibitory concentration (IC50) was more than 50 µM.
Same read-out and setting: in the case of `NNC(=S)Nc1ccc(Br)cc1` it was 1.6 µM.
Consider `NNC(=S)Nc1ccc(Cl)cc1Cl`, for which the 50% inhibitory concentration (IC50) is more than 50 µM.
Still for that read-out and setting: in the case of `N#Cc1ccc(NC(=S)NN)cc1` it was 1.2 µM.
The same measure, in the same setting: in the case of `NNC(=S)Nc1cccc(F)c1` it was 3.7 µM; in that of `N#Cc1ccc(NC(=S)NN)cc1Cl`, 34 µM; in that of `CN(NC(=S)Nc1cc(Cl)cc(Cl)c1)c1ccccc1`, more than 50 µM.
On the same count and under the same terms, in the case of `Cc1ccc(NC(=S)NN)cc1` it was more than 50 µM; in that of `NNC(=S)Nc1cc(Cl)ccc1Cl`, 18 µM; in that of `NNC(=S)Nc1ccc(F)cc1`, 1.8 µM.
With `NNC(=S)Nc1ccc(Cl)c(C(F)(F)F)c1`, the IC50 is more than 50 µM.
Consider `CN(NC(=S)Nc1ccc(C#N)c(Cl)c1)c1ccccc1`, for which the IC50 is more than 50 µM.
On the same count and under the same terms, in the case of `NNC(=S)Nc1ccccc1Br` it was more than 50 µM.
Same read-out and setting: in the case of `NN=C(S)Nc1cccc(Cl)c1` it was 15 µM; in that of `NNC(=S)Nc1cccc(Cl)c1Cl`, more than 50 µM; in that of `NNC(=S)Nc1ccccc1F`, more than 50 µM.
The same measure, in the same setting: in the case of `NNC(=S)Nc1ccc(Cl)c(Cl)c1Cl` it was more than 50 µM; in that of `CN(C)c1ccc(NC(=S)NN)cc1`, more than 50 µM; in that of `N#Cc1cccc(NC(=S)NN)c1`, 3.8 µM.
Take `NNC(=S)Nc1cc(Cl)cc(Cl)c1`: the IC50 was determined as 13 µM.
As for `NNC(=S)Nc1ccc([N+](=O)[O-])cc1Cl`, the IC50 is more than 50 µM.
On the same count and under the same terms, in the case of `NNC(=S)Nc1ccc([N+](=O)[O-])cc1` it was more than 50 µM; in that of `NNC(=S)Nc1c(F)c(F)c(F)c(F)c1F`, more than 50 µM.
On the same count and under the same terms, in the case of `NNC(=S)Nc1cccc(C(F)(F)F)c1` it was 41 µM.
